Results reported in US10086054B2, “RM2 antigens and use thereof” (ACADEMIA SINICA, priority 2013, dated 2018).
Read-outs that look alike come from different tables or passages of the source.

What was measured:
[1] = test system: induced IgG antibodies by DT-RM4.7/C34 vaccine; test: Specificity analysis of antibodies induced by DT-RM4.7/C34 vaccine on glycan microarray; type: binding, mouse; conditions: sera of DT-RM4.7/C34-immunized mice; for binding of induced IgG antibodies to glycan: FIG. 14; for binding of induced antibodies to glycan, microarray of STn, DSGG, RM2 antigen, analogs and fragments: FIG. 15
Description: It was observed that these oligosaccharides all contain the same epitope trisaccharide 27 (NeuAcα2→6GlcNAcβ1→3Galβ1→R). To further evaluate the vaccine specificity, a glycan microarray created by STn, DSGG, RM2 antigen, RM2 antigen analogs, and RM2 antigen fragments was constructed (FIG. 15).
Microarrays were printed (BioDot; CartesianTechnologies) by robotic pin (SMP3; TeleChem In-ternational Inc.) deposition of 0.7 nL 100 μM amine-containing glycans in printing buffer (300 mM phosphate buffer, pH 8.5, containing 0.01% TritonX-100) from a […] microtiter plate onto N-Hydroxysuccinimide (NHS)-coated glass slides. Subsequently, a 96-glycan microarray (Fig. S2) was used to determine the polyclonal Ab spectrum of DT-RM series-induced antiserum. Printed slides were allowed to react in an atmosphere of 80% humidity for 1 h followed by desiccation overnight. These slides were stored at room temperature in a desiccator prior to use.
Mouse sera were diluted with 1% BSA/PBST buffer (PBST buffer: PBS and 0.05% Tween-20, pH 7.4). The glycan microarray was blocked with 50 mM ethanolamine for 1 h at 0° C. and washed three times with PBST buffer before use. The serum dilutions were then introduced to the glycan microarray and incubated at 0° C. for 1 h. Next, Cy3-conjugated goat anti-mouse IgG (H+L), IgG1, IgG2a, IgG2b, IgG2c, IgG3, or anti-mouse IgM was added to the microarray slide and then sealed for 1 h incubation at 0° C. in the dark. Finally, the slides were washed three times with PBST, PBST washing buffer, and ddH2O in sequence. The slides were spin-dried for 5 minutes before scanned at 635 nm with a microarray fluorescence chip reader (GenePix 4300A; Molecular Devices Corporation). Scanned images were analyzed with GenePix Pro-6.0 analysis software (Axon Instruments, Union City, Calif., USA).

[2] = test system: monoclonal RM2 antibody; test: Determination of surface dissociation constant (KD,surf) on glycan microarray; type: binding, mouse
Description: An expanded glycan array containing the synthesized hexasaccharide 1 and its analogs along with the other ninety glycans are incorporated to a glycan array for testing (Figure S4). All glycans were directly immobilized onto NHS-coated glass slides by taking an aliquot from a stock solution of sugar at a fixed concentration (100 μM). The assay involved an initial treatment with RM2 (a mouse IgM anti-RM2 monoclonal antibody, a kind gift from Prof. Saito), followed by incubation with a fluorescein-tagged anti mouse IgM secondary antibody against its primary antibody. After one hour incubation, the slides were washed with ddH2O twice and scanned to show the binding specificity of the antibody to printed oligosaccharides. […] To determine the dissociation the dissociation constants of RM2 and truncated analogs on the surface interacting with the antibody in a multivalent manner, the direct measurement method was experimented (Liang, P. H.; Wang, S. K.; Wong, C. H. J. Am. Chem. Soc. 2007, 129, 11177), using different concentrations of antibodies and printed sugars. […] At the printing concentrations from 100 μM to 6.25 μM, however, it was observed that the KD,surf values measured were narrowly distributed from the individual curves (FIG. 20 and Table 1). Using the same method, the KD,surf values were determined for the truncated RM2 analog 29 interacting with the antibody (FIG. 21 and Table S2).
The slides were spotted with solution of RM2 1 and 29 with concentrations 100, 50, 25, 12.5, and 6.25 μM 2 rows from top to bottom with 5 replicates horizontally placed in each grids. The glycan microarray was blocked with 50 mM ethanolamine for 1 h at 0° C. and washed three times with PBST buffer before use. The monoclonal RM2 antibody was diluted with 3% BSA/PBST buffer (PBST buffer: PBS and 0.05% Tween-20, pH 7.4). Next, Cy3-conjugated goat anti-mouse IgM antibody was added into the diluted solution to precomplex with primary antibody. The precomplexed solution was applied to each well and incubated at 0° C. for 1 h in the dark. Finally, the slides were washed by PBST washing buffer and ddH2O in sequence. The slides were spin-dried for 5 minutes before scanned at 635 nm with a microarray fluorescence chip reader (GenePix 4300A; Molecular Devices Corporation). Scanned images were analyzed with GenePix Pro-6.0 analysis software (Axon Instruments, Union City, Calif., USA).

[3] = test system: RM2 (a mouse IgM anti-RM2 monoclonal antibody); test: Glycan array binding specificity of monoclonal antibody RM2; conditions: glycans printed at 100 μM; FIG. 11
Description: An expanded glycan array containing the synthesized hexasaccharide 1 and its analogs along with the other ninety glycans are incorporated to a glycan array for testing (Figure S4). All glycans were directly immobilized onto NHS-coated glass slides by taking an aliquot from a stock solution of sugar at a fixed concentration (100 μM). The assay involved an initial treatment with RM2 (a mouse IgM anti-RM2 monoclonal antibody, a kind gift from Prof. Saito), followed by incubation with a fluorescein-tagged anti mouse IgM secondary antibody against its primary antibody. After one hour incubation, the slides were washed with ddH2O twice and scanned to show the binding specificity of the antibody to printed oligosaccharides. […] To determine the dissociation the dissociation constants of RM2 and truncated analogs on the surface interacting with the antibody in a multivalent manner, the direct measurement method was experimented (Liang, P. H.; Wang, S. K.; Wong, C. H. J. Am. Chem. Soc. 2007, 129, 11177), using different concentrations of antibodies and printed sugars. […] Using the same method, the KD,surf values were determined for the truncated RM2 analog 29 interacting with the antibody (FIG. 21 and Table S2). […]

[4] = antibody RM2, glycan printed on microarray, read-out: KD, surf (nM) ± SD

Structure (SMILES): CC(=O)NC1C(O[C@@H]2OC(CO)[C@H](O)C(O[C@@]3(C(=O)O)CC(O)[C@H](NC(C)=O)C([C@H](O)[C@H](O)CO)O3)C2O)[C@H](O)C(CO[C@]2(C(=O)O)CC(O)[C@@H](NC(C)=O)C([C@H](O)[C@H](O)CO)O2)O[C@H]1OC1C(O)[C@H](OCCCCCN)OC(CO)[C@@H]1O (stereo partly shown) [Compound 30]
- binding of induced IgG antibodies to glycan [1]: weaker binding

Structure (SMILES): CC(=O)N[C@H]1[C@H](O[C@H]2[C@@H](O)[C@@H](CO)O[C@@H](OCCCCCN)[C@@H]2O)O[C@H](CO[C@]2(C(=O)O)C[C@H](O)[C@@H](NC(C)=O)[C@H]([C@H](O)[C@H](O)CO)O2)[C@@H](O)[C@@H]1O [Compound 27, (2R,4S,5R,6R)-5-acetamido-2-(((2R,3S,4R,5R,6S)-5-acetamido-6-((2R,3R,4S,5S,6R)-2-(5-aminopentyloxy)-3,5-dihydroxy-6-(hydroxymethyl)tetrahydro-2H-pyran-4-yloxy)-3,4-dihydroxytetrahydro-2H-pyran-2-yl)methoxy)-4-hydroxy-6-((1R,2R)-1,2,3-trihydroxypropyl)tetrahydro-2H-pyran-2-carboxylic acid]
- binding of induced IgG antibodies to glycan [1]: weaker binding
- binding of induced antibodies to glycan, microarray of STn, DSGG, RM2 antigen, analogs and fragments [1]: mainly bound

Structure (SMILES): CC(=O)NC1C(OC2C(O)C(OCCCCCN)OC(CO)[C@H]2O)OC(CO[C@]2(C(=O)O)CC(O)[C@@H](NC(C)=O)C([C@H](O)[C@H](O)CO)O2)[C@@H](O)C1O (stereo partly shown) [Compound 34]
- binding of induced antibodies to glycan, microarray of STn, DSGG, RM2 antigen, analogs and fragments [1]: a lesser extent

Structure (SMILES): CC(=O)NC1[C@H](O[C@@H]2[C@H](O)[C@@H](O)[C@H](O[C@H]3[C@H](O)[C@@H](CO[C@]4(C(=O)O)C[C@H](O)[C@@H](NC(C)=O)[C@H]([C@H](O)[C@H](O)CO)O4)O[C@@H](O[C@H]4[C@@H](O)[C@@H](CO)O[C@@H](OCCCCCN)[C@@H]4O)[C@@H]3NC(C)=O)O[C@@H]2CO)O[C@H](CO)[C@H](O)[C@@H]1O (stereo partly shown) [Compound 29]
- binding of induced IgG antibodies to glycan [1]: weaker binding
- Fmax ([2]; 29 on microarray, printing concentration 6.25 μM): 51,597
- Kd ([2]; 29 on microarray, printing concentration 6.25 μM, read-out: KD, surf): 5.13 nM
- Fmax ([2]; 29 on microarray, printing concentration 12.5 μM): 50,900
- Kd ([2]; 29 on microarray, printing concentration 12.5 μM, read-out: KD, surf): 4.05 nM
- Fmax ([2]; 29 on microarray, printing concentration 25 μM): 50,970
- Kd ([2]; 29 on microarray, printing concentration 25 μM, read-out: KD, surf): 4.5 nM
- Fmax ([2]; 29 on microarray, printing concentration 50 μM): 59,045
- Kd ([2]; 29 on microarray, printing concentration 50 μM, read-out: KD, surf): 6.44 nM
- Fmax ([2]; 29 on microarray, printing concentration 100 μM): 62,859
- Kd ([2]; 29 on microarray, printing concentration 100 μM, read-out: KD, surf): 6.96 nM
- Kd [2, 4]: 5.76 ± 1.14 nM

Structure (SMILES): CC(=O)N[C@H]1[C@H](O[C@H]2[C@@H](O)[C@@H](CO)O[C@@H](OCCCCCN)[C@@H]2O)O[C@H](CO[C@]2(C(=O)O)C[C@H](O)[C@@H](NC(C)=O)[C@H]([C@H](O)[C@H](O)CO)O2)[C@@H](O)[C@@H]1O[C@@H]1O[C@H](CO)[C@H](O)[C@H](O)[C@H]1O [Compound 28, (2R,4S,5R,6R)-5-acetamido-2-(((2R,3S,4R,5R,6S)-5-acetamido-6-((2R,3R,4S,5S,6R)-2-(5-aminopentyloxy)-3,5-dihydroxy-6-(hydroxymethyl)tetrahydro-2H-pyran-4-yloxy)-3-hydroxy-4-((2R,3R,4S,5R,6R)-3,4,5-trihydroxy-6-(hydroxymethyl)tetrahydro-2H-pyran-2-yloxy)tetrahydro-2H-pyran-2-yl)methoxy)-4-hydroxy-6-((1R,2R)-1,2,3-trihydroxypropyl)tetrahydro-2H-pyran-2-carboxylic acid]
- binding of induced IgG antibodies to glycan [1]: weaker binding

Structure (SMILES): CC(=O)N[C@@H]1[C@@H]([C@H](O)[C@H](O)CO)O[C@](O[C@@H]2[C@@H](O)[C@H](O[C@H]3[C@H](O)[C@@H](CO[C@]4(C(=O)O)C[C@H](O)[C@@H](NC(C)=O)[C@H]([C@H](O)[C@H](O)CO)O4)O[C@@H](O[C@H]4[C@@H](O)[C@@H](CO)O[C@@H](OCCCCCN)[C@@H]4O)[C@@H]3NC(C)=O)O[C@H](CO)[C@@H]2O[C@@H]2O[C@H](CO)[C@H](O)[C@H](O)[C@H]2NC(C)=O)(C(=O)O)C[C@H]1O [Compound 1]
- binding of induced IgG antibodies to glycan [1]: strong binding
- binding of induced antibodies to glycan, microarray of STn, DSGG, RM2 antigen, analogs and fragments [1]: mainly bound
- Fmax ([2]; RM2 printing concentration 6.25 μM): 45,483
- Kd ([2]; RM2 printing concentration 6.25 μM, read-out: KD, surf): 4.72 nM
- Fmax ([2]; RM2 printing concentration 12.5 μM): 45,028
- Kd ([2]; RM2 printing concentration 12.5 μM, read-out: KD, surf): 3.14 nM
- Fmax ([2]; RM2 printing concentration 25 μM): 47,714
- Kd ([2]; RM2 printing concentration 25 μM, read-out: KD, surf): 4.28 nM
- Fmax ([2]; RM2 printing concentration 50 μM): 53,982
- Kd ([2]; RM2 printing concentration 50 μM, read-out: KD, surf): 5.48 nM
- Fmax ([2]; RM2 printing concentration 100 μM): 55,756
- Kd ([2]; RM2 printing concentration 100 μM, read-out: KD, surf): 5.1 nM
- relative binding specificity of RM2 for the epitopes ([2]; antibody RM2): RM2>pentasaccharide 29
- Kd [2, 4]: 4.54 ± 0.903 nM
- binding specificity of the antibody to printed oligosaccharides [3]: recognize hexasaccharide 1 specifically

Structure (SMILES): CC(=O)N[C@H]1[C@H](OCCCCCN)O[C@H](CO[C@]2(C(=O)O)C[C@H](O)[C@@H](NC(C)=O)[C@H]([C@H](O)[C@H](O)CO)O2)[C@@H](O)[C@@H]1O [Compound 33, (2R,4S,5R,6R)-5-acetamido-2-(((2R,3S,4R,5R,6R)-5-acetamido-6-(5-aminopentyloxy)-3,4-dihydroxytetrahydro-2H-pyran-2-yl)methoxy)-4-hydroxy-6-((1R,2R)-1,2,3-trihydroxypropyl)tetrahydro-2H-pyran-2-carboxylic acid]
- binding of induced antibodies to glycan, microarray of STn, DSGG, RM2 antigen, analogs and fragments [1]: a lesser extent

Structure (SMILES): CC(=O)N[C@H]1[C@H]([C@H](O)[C@H](O)CO)O[C@@](OC[C@H]2OC(O)[C@H](O)[C@@H](O)[C@H]2O)(C(=O)O)C[C@@H]1O (stereo partly shown) [NeuAcα2→6Gal, reference compound]
- binding of induced antibodies to glycan, microarray of STn, DSGG, RM2 antigen, analogs and fragments [1]: no detectable signal of binding
